For assay [1], the system named is HCN2 over-expressing cell culture. The assay is described as follows: Spontaneous rate (action potential recording) of AdHCN2 infected culture during drug superfusion. The class given is cell-based, rat. The note with it: for spontaneous rate during drug exposure: AdHCN2 infected culture, same culture during superfusion with drug, control records: 48 (isoproterenol), 54 (carbachol), 96 (ZD-7288) beats/min; for effect on heart rate of the culture (in words): HCN2 over-expressing cell culture. The source says:
Adult rats were anesthetized with ketamine-xylazine before cardiectomy, and neonatal rats decapitated, in accordance with the Institutional Animal Care and Use Committee protocols of Columbia University. For preparing cell cultures of newborn ventricles, a standard trypsin dissociation method was employed (21). The cells were preplated to reduce fibroblast proliferation, cultured initially in serum-containing medium (except when being transfected with plasmids as described below) and then switched to a serum free medium (SFM) after 24 hours. Action potential studies were conducted on 4 day old monolayer cultures plated directly onto fibronectin coated 9×22 mm glass coverslips. For voltage clamp experiments, 4–6 day old monolayer cultures were resuspended by brief (2–3 min) exposure to 0.25% trypsin, then the cells replated onto fibronectin-coated coverslips and studied within 2–8 hours.
For adult rat ventricular myocytes, AdHCN2 infection was carried out 2–3 hours after the isolated cells were plated onto coverslips. For neonatal cells, the infection was done on the monolayer culture 1–3 days after plating. In either case, the culture medium was removed from the dishes (35-mm) and the inoculum of 0.2–0.3 ml/dish was added containing AdHCN2. The value of m.o.i. (multiplicity of infection—the ratio of viral units to cells) was 15–100. The inoculum was dispersed over the cells every 20 min by gently “tilting” the dishes so that the cells were evenly exposed to the viral particles. The dishes were kept at 37° C. in a CO2 incubator during the adsorption period of two hours, then the inoculum was discarded and the dishes were washed and refilled with the appropriate culture medium. The dishes remained in the incubator for 24–48 hours before electrophysiological experiments were conducted. In some experiments, an adenoviral construct for GFP (AdGFP) was employed.
The whole-cell voltage clamp technique was employed to record native If or expressed IHCN2 or IHCN4. Action potentials were recorded in current clamp mode, again using a whole cell patch electrode/Experiments were carried out on cells supervised at 35° C. Extracellular solution contained (mmol/L): NaCl, 140; NaOH, 2.3; MgCl2, 1; KCl, 5.4; CaCl2, 1.0; HEPES, 5; glucose, 10; pH 7.4. To record from myocytes expressing native currents (If) myocytes expressing HCN2 (IHCN2) or HCN4 (IHCN4), [K^+]0 was increased to 10 mmol/L, and MnCl2 (2 mmol/L) and BaCl2 (4 mmol/L) added to the superfusate to eliminate calcium and inward rectifier (IK1) currents. In some experiments CsCl (4 mmol/L) was used extracellularly to identify the pacemaker current as the Cs-sensitive current. The patch pipette solution included (mmol/L): aspartic acid, 130; KOH, 146; NaCl, 10; CaCl2, 2; EGTA-KOH, 5; Mg-ATP, 2; HEPES-KOH, 10, pH 7.2. Where indicated, 10 μmol/L cAMP was included in the pipette solution. A fast solution changing apparatus expedited the experimental protocols. The pipette resistance was typically […]. An Axopatch-200B amplifier and pClampS software (Axon Instruments) were used for acquisition and data analysis. The pacemaker current (If, IHCN2 or IHCN4) was defined as the time-dependent component taken at the end of a hyperpolarizing step to voltages in the range of −35 to −145 mV, while the holding potential was −35 mV unless otherwise indicated. For If and IHCN2 measurements, the hyperpolarizing test pulses were 3 or 6 sec long throughout the voltage range. To accurately record steady-state currents for the more slowly activating IHCN4, the test voltages varied in length from 6 sec at −125 mV to as long as 60 sec at −55 mV. When recording tail currents, the test pulses were followed by an 8-sec voltage step to −125 mV. In all pacemaker current protocols, each episode ended with a pulse to −5 mV for 0.5 sec to insure full deactivation.
The normal cardiac pacemaker beats independently but is regulated by neurotransmitters released from sympathetic and parasympathetic neurons. […]

For assay [2], the target named is T1, expressed HCN2 current (Mus musculus, UniProt O88703).
T1 construct: expressed in transfected cells; host or cells: neonatal and adult rat ventricular myocytes in primary culture, infected with adenovirus AdHCN2 (or lipofectin-transfected with pCI-mHCN2)
T1 sequence (O88703 1-863): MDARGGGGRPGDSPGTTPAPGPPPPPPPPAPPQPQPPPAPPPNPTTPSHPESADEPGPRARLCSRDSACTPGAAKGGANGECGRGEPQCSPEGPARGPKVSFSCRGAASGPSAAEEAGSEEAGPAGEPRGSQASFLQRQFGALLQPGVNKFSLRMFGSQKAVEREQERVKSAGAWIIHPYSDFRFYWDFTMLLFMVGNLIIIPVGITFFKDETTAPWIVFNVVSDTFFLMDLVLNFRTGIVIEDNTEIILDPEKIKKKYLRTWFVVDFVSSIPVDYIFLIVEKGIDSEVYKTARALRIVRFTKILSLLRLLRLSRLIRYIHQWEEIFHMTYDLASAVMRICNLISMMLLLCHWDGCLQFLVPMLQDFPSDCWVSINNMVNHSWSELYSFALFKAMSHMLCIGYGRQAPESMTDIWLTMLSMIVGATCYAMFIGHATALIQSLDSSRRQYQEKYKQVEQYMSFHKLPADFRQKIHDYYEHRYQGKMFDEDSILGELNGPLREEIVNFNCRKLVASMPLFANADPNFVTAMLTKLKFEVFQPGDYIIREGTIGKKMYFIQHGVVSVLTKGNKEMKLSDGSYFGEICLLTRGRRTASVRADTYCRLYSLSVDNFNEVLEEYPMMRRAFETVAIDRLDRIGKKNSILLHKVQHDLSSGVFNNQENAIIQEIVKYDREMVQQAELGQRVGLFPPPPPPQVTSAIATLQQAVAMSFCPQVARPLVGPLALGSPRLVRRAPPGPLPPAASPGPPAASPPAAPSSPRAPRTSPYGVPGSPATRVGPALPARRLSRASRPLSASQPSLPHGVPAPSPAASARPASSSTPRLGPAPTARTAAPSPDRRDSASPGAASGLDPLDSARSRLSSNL
Briefly: Whole-cell voltage clamp: shift of the activation relation of expressed HCN2 current in ventricular myocytes. The class given is cell-based. The note with it: for shift of the voltage dependence of HCN2: saturating cAMP (10 μmol/L) in the pipette.
Method: The whole-cell voltage clamp technique was employed to record native If or expressed IHCN2 or IHCN4. Action potentials were recorded in current clamp mode, again using a whole cell patch electrode/Experiments were carried out on cells supervised at 35° C. Extracellular solution contained (mmol/L): NaCl, 140; NaOH, 2.3; MgCl2, 1; KCl, 5.4; CaCl2, 1.0; HEPES, 5; glucose, 10; pH 7.4. […] In some experiments CsCl (4 mmol/L) was used extracellularly to identify the pacemaker current as the Cs-sensitive current. […] Where indicated, 10 μmol/L cAMP was included in the pipette solution. A fast solution changing apparatus expedited the experimental protocols. The pipette resistance was typically 1–3 M. An Axopatch-200B amplifier and pClampS software (Axon Instruments) were used for acquisition and data analysis. […] For If and IHCN2 measurements, the hyperpolarizing test pulses were 3 or 6 sec long throughout the voltage range. […] In all pacemaker current protocols, each episode ended with a pulse to −5 mV for 0.5 sec to insure full deactivation.
The activation relation of the native or expressed current can be determined from the steady-state I-V relation.

In assay [3] the test system is native pacemaker current. Particulars: sinus node; cited from earlier work.

As to `CCN(c1ccccc1)c1cc(=NC)n(C)c(C)n1.Cl` [ZD-7288], in assay [1], the “spontaneous rate during drug exposure” value came out at 78 beats/min and the “effect on heart rate of the culture (in words)” value (“effect on heart rate” below) is listed as “slows the rate”.
For `Nc1ncnc2c1ncn2[C@@H]1O[C@@H]2COP(=O)(O)O[C@H]2[C@H]1O` [cAMP, cyclic adenosine monophosphate], the “shift of the voltage dependence of HCN2” value was determined as 14 mV in assay [2] (adult myocytes infected with AdHCN2) and 17 mV in assay [2] (neonate myocytes infected with AdHCN2).
Turning to `C[N+](C)(C)CCOC(N)=O` [carbachol], in assay [1], the “spontaneous rate during drug exposure” value is on record as 45 beats/min and the “effect on heart rate” value is “decrease in heart rate”.
In the case of `CC(C)NCC(O)c1ccc(O)c(O)c1` (stereo not shown) [isoproterenol], in assay [1], the “spontaneous rate during drug exposure” value is given as 63 beats/min and the “effect on heart rate” value is listed as “increase in heart rate”. In addition, the “positive shift of the activation curve of expressed HCN2 current” value in assay [2] (threshold concentration of isoproterenol, neonatal ventricular myocyte, two-step voltage protocol, one cell) was “approximately 5 mV”. Moreover, the “threshold concentration on native pacemaker current” value in assay [3] is given as “approximately 1 nM”.

These data come from US7122307B2, “High throughput biological heart rate monitor that is molecularly determined” (The Trustees of Columbia University in the City of New York, priority 2001, dated 2006).
